Measured values from ChEMBL document CHEMBL1129764, “Synthesis of N-kojic-amino acid and N-kojic-amino acid-kojiate and their tyrosinase inhibitory activity” (Bioorg Med Chem Lett, 1996).

Target: T1, Tyrosinase (Homo sapiens, UniProt P14679)
T1 sequence (P14679 whole entry): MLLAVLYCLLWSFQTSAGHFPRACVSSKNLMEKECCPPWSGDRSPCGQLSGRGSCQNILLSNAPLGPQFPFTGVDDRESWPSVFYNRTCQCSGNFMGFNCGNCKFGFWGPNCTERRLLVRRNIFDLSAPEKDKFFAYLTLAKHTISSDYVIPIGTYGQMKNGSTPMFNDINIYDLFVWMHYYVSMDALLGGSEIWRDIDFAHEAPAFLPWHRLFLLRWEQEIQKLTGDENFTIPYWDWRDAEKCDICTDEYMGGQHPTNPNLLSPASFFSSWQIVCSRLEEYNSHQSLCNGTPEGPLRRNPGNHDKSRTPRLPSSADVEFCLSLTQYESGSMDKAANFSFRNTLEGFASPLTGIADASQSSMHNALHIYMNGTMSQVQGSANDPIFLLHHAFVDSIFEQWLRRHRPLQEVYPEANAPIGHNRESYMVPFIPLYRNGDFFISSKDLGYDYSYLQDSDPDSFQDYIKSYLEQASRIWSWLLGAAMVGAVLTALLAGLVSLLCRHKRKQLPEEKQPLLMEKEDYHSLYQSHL
Assay: Compound was evaluated for inhibition of tyrosinase enzyme; Not active; call rule not given here
Parameters: species or system mushroom

IC50: Not Active
Structure (SMILES): N[C@@H](Cc1ccccc1)C(=O)O [PHENYLALANINE]
